Results reported in PubChem BioAssay AID248 (DTP/NCI, 2004).
Several values for one entry are separate records, joined by “and”; a condition that tells them apart may be missing. Equal entries are not always repeated. Toxic doses and inconclusive results are not listed. Rule as the data show it: active = T/C of 150% or more; inactive = T/C below 125%.

Tested on: L1210 leukemia ip in BDF1 mice, survival T/C
Experiment: NCI In Vivo Anticancer Drug Screen. Data for tumor model L1210 Leukemia (intraperitoneal) in B6D2F1 (BDF1) mice
Details: endpoint: mean survival time, higher = longer survival
Procedure, shortened: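 Tumor was transplanted into mice, which were then dosed with test compound or vehicle alone. Survival was recorded for each group, and the treated figure was expressed relative to the control figure.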

[1] = dose: 100.0 mg/kg/injection, schedule: Q01DX001 (ip), vehicle: carboxymethylcellulose (CMC)
[2] = dose: 200.0 mg/kg/injection, schedule: Q01DX001 (ip), vehicle: carboxymethylcellulose (CMC)
[3] = dose: 100.0 mg/kg/injection, schedule: Q01DX001 (ip), vehicle: saline
[4] = dose: 200.0 mg/kg/injection, schedule: Q01DX001 (ip), vehicle: saline
[5] = dose: 400.0 mg/kg/injection, schedule: Q01DX001 (ip), vehicle: saline
[6] = dose: 50.0 mg/kg/injection, schedule: Q04DX003 (ip), vehicle: saline
[7] = dose: 100.0 mg/kg/injection, schedule: Q04DX003 (ip), vehicle: saline
[8] = dose: 25.0 mg/kg/injection, schedule: Q01DX009 (ip), vehicle: saline

Measured: T/C

Nc1nccc2c1ncn2C1OC(CO)C(O)C1O (centres undefined)
inactive: dose: 100.0 mg/kg/injection, schedule: Q01DX005 (ip), vehicle: saline 108 % of control | dose: 200.0 mg/kg/injection, schedule: Q01DX005 (ip), vehicle: saline 109 % of control

Cc1nc2ccccc2nc1N1CCCC1
inactive: dose: 111.0 mg/kg/injection, schedule: Q01DX Z (ip), vehicle: methylcellulose (MC) 101 % of control | dose: 166.0 mg/kg/injection, schedule: Q01DX Z (ip), vehicle: methylcellulose (MC) 92 % of control | dose: 250.0 mg/kg/injection, schedule: Q01DX Z (ip), vehicle: methylcellulose (MC) 114 % of control

N=C(N)SC1c2cc(Cl)ccc2-c2c(Cl)cc(Cl)cc21 (centres undefined)
inactive: [1] 94 % of control | [2] 92 % of control

C=C1C(=O)O[C@H]2C1[C@H](OC(=O)/C(C)=C\COC(C)=O)C[C@]1(CO1)[C@@H]1[C@H](O)[C@H]3O[C@@]3(C)[C@@H]12 (some centres undefined)
inactive: dose: 25.0 mg/kg/injection, schedule: Q04DX002 (ip), vehicle: other 105 % of control | dose: 50.0 mg/kg/injection, schedule: Q04DX002 (ip), vehicle: other 103 % of control | dose: 100.0 mg/kg/injection, schedule: Q04DX002 (ip), vehicle: other 97 % of control and 100 % of control

Cc1cc[n+]2n1CC(O)C2 (centres undefined)
inactive: dose: 50.0 mg/kg/injection, schedule: Q01DX001 (ip), vehicle: saline 102 % of control | [3] 100 % of control | [4] 96 % of control | [5] 102 % of control

O=C(OCC(O)C(O)C(O)C(O)COC(=O)c1ccccc1)c1ccccc1 (centres undefined) (tested in a mixture with another compound)
inactive: dose: 100.0 mg/kg/injection, schedule: Q01DX001 (ip), vehicle: saline with Tween-80 103 % of control | dose: 200.0 mg/kg/injection, schedule: Q01DX001 (ip), vehicle: saline with Tween-80 100 % of control | dose: 400.0 mg/kg/injection, schedule: Q01DX001 (ip), vehicle: saline with Tween-80 90 % of control

CCOC(=O)/C=C(/C)OC(C)=O
inactive: dose: 100.0 mg/kg/injection, schedule: Q01DX009 (ip), vehicle: Klucel (hydroxypropylcellulose) (HPC) 100 % of control | dose: 100.0 mg/kg/injection, schedule: Q04DX003 (ip), vehicle: Klucel (hydroxypropylcellulose) (HPC) 101 % of control | dose: 200.0 mg/kg/injection, schedule: Q01DX009 (ip), vehicle: Klucel (hydroxypropylcellulose) (HPC) 98 % of control | dose: 200.0 mg/kg/injection, schedule: Q04DX003 (ip), vehicle: Klucel (hydroxypropylcellulose) (HPC) 95 % of control | dose: 400.0 mg/kg/injection, schedule: Q01DX009 (ip), vehicle: Klucel (hydroxypropylcellulose) (HPC) 100 % of control | dose: 400.0 mg/kg/injection, schedule: Q04DX003 (ip), vehicle: Klucel (hydroxypropylcellulose) (HPC) 95 % of control

O=C(O)c1c(Br)c(Br)c(Br)c(Br)c1-c1c2ccc(=O)c(O)c-2oc2c(O)c(O)ccc12
inactive: dose: 12.5 mg/kg/injection, schedule: Q04DX003 (ip), vehicle: saline 108 % of control | dose: 25.0 mg/kg/injection, schedule: Q04DX003 (ip), vehicle: saline 103 % of control | [6] 105 % of control | [7] 102 % of control

O=C(O)C(O)C(Br)C(=O)O (centres undefined)
inactive: [6] 95 % of control | [3] 95 % of control | [7] 104 % of control

Cc1nc(N)nn1C
inactive: dose: 100.0 mg/kg/injection, schedule: Q04DX002 (ip), vehicle: saline 97 % of control | dose: 200.0 mg/kg/injection, schedule: Q04DX002 (ip), vehicle: saline 110 % of control | dose: 400.0 mg/kg/injection, schedule: Q04DX002 (ip), vehicle: saline 100 % of control

ClCc1c2ccccc2c(CCl)c2ccccc12
inactive: dose: 0.9 mg/kg/injection, schedule: Q01DX009 (ip), vehicle: saline with Tween-80 118 % of control | dose: 1.35 mg/kg/injection, schedule: Q01DX009 (ip), vehicle: saline with Tween-80 120 % of control | dose: 2.05 mg/kg/injection, schedule: Q01DX009 (ip), vehicle: saline with Tween-80 111 % of control | dose: 2.08 mg/kg/injection, schedule: Q01DX009 (ip), vehicle: saline 120 % of control | dose: 3.12 mg/kg/injection, schedule: Q01DX009 (ip), vehicle: saline 111 % of control | dose: 4.0 mg/kg/injection, schedule: Q01DX009 (ip), vehicle: carboxymethylcellulose (CMC) 110 % of control | dose: 4.68 mg/kg/injection, schedule: Q01DX009 (ip), vehicle: saline with Tween-80 94 % of control | dose: 4.68 mg/kg/injection, schedule: Q01DX009 (ip), vehicle: saline 98 % of control | dose: 5.0 mg/kg/injection, schedule: Q01DX009 (ip), vehicle: carboxymethylcellulose (CMC) 121 % of control | dose: 6.2 mg/kg/injection, schedule: Q01DX015 (ip), vehicle: carboxymethylcellulose (CMC) 112 % of control | dose: 7.0 mg/kg/injection, schedule: Q01DX001 (ip), vehicle: saline 114 % of control | dose: 9.3 mg/kg/injection, schedule: Q01DX015 (ip), vehicle: carboxymethylcellulose (CMC) 106 % of control | dose: 14.0 mg/kg/injection, schedule: Q01DX001 (ip), vehicle: saline 104 % of control | dose: 14.0 mg/kg/injection, schedule: Q01DX015 (ip), vehicle: carboxymethylcellulose (CMC) 104 % of control | dose: 16.0 mg/kg/injection, schedule: Q01DX009 (ip), vehicle: carboxymethylcellulose (CMC) 119 % of control | dose: 20.0 mg/kg/injection, schedule: Q01DX009 (ip), vehicle: carboxymethylcellulose (CMC) 123 % of control | dose: 28.0 mg/kg/injection, schedule: Q01DX001 (ip), vehicle: saline 104 % of control | dose: 56.0 mg/kg/injection, schedule: Q01DX001 (ip), vehicle: saline 109 % of control | dose: 88.8 mg/kg/injection, schedule: Q01DX001 (ip), vehicle: saline 113 % of control | [3] 118 % of control | dose: 112.0 mg/kg/injection, schedule: Q01DX001 (ip), vehicle: saline 109 % of control | [4] 109 % of control | dose: 300.0 mg/kg/injection, schedule: Q01DX001 (ip), vehicle: saline 109 % of control | [5] 92 % of control

CC[As](=O)(O)CCCc1ccccc1
inactive: dose: 12.5 mg/kg/injection, schedule: Q01DX001 (ip), vehicle: Klucel (hydroxypropylcellulose) (HPC) 106 % of control | dose: 25.0 mg/kg/injection, schedule: Q01DX001 (ip), vehicle: Klucel (hydroxypropylcellulose) (HPC) 109 % of control

CCCC[As](=O)(O)CC
inactive: [8] 104 % of control

CC(C)(C)OC(=O)CCSC(C)(C)C
inactive: dose: 100.0 mg/kg/injection, schedule: Q01DX001 (ip), vehicle: Klucel (hydroxypropylcellulose) (HPC) 96 % of control | dose: 200.0 mg/kg/injection, schedule: Q01DX001 (ip), vehicle: Klucel (hydroxypropylcellulose) (HPC) 96 % of control | dose: 400.0 mg/kg/injection, schedule: Q01DX001 (ip), vehicle: Klucel (hydroxypropylcellulose) (HPC) 96 % of control

CCCCNC(C)(C)CCl
inactive: [8] 103 % of control | dose: 25.0 mg/kg/injection, schedule: Q04DX003 (ip), vehicle: water 110 % of control | dose: 50.0 mg/kg/injection, schedule: Q01DX009 (ip), vehicle: saline 102 % of control | dose: 50.0 mg/kg/injection, schedule: Q01DX009 (ip), vehicle: water 91 % of control | dose: 50.0 mg/kg/injection, schedule: Q04DX003 (ip), vehicle: water 116 % of control | [3] 104 % of control | dose: 100.0 mg/kg/injection, schedule: Q04DX003 (ip), vehicle: water 98 % of control and 102 % of control

O=c1ccc2cc(Cl)ccc2o1
inactive: dose: 50.0 mg/kg/injection, schedule: Q01DX001 (ip), vehicle: carboxymethylcellulose (CMC) 98 % of control | [1] 98 % of control | [2] 93 % of control | dose: 400.0 mg/kg/injection, schedule: Q01DX001 (ip), vehicle: carboxymethylcellulose (CMC) 98 % of control
